Data taken from patent US20120014918A1, “ADDITION SALTS OF AMINES CONTAINING HYDROXYL AND/OR CARBOXYLIC GROUPS WITH AMINO NICOTINIC ACID DERIVATIVES AS DHODH INHIBITORS” (priority 2009, published 2012).
Counter-ions that a name gives are not always drawn.

How the values were obtained:
Format in all cases: physicochemical
[1] = Water-solubility test; settings: 25° C. (room temperature), expressed as acid
[2] = Dynamic Vapour Sorption (DVS) profiles; settings: 25° C.; for Hygroscopicity according to the DVS pattern: sorption 0 to 95% RH and desorption; for Hysteresis in the DVS pattern: sorption/desorption isotherms; for Mass increase at 80% relative humidity: 80% RH; for Mass increase at 90% relative humidity: 90% RH
Experimental: Dynamic Vapour Sorption (DVS) profiles were obtained using an Igasorp Hiden Isochema instrument (serial number IGA-SA-066). After an initial stabilization period, at least two isotherms (at 25° C.) were obtained for each sample: a moisture sorption from 0 to 95% relative humidity and moisture desorption from 95% relative humidity to dryness. Both isotherms were performed in 10% humidity steps, with a minimum time of 10 minutes and a maximum time of 30 minutes for each step.

[3] = Differential scanning calorimetry (DSC) thermograms; settings: heated 30 to 350° C. at 10° C./min
Experimental: The differential scanning calorimetry (DSC) thermograms analyses were obtained using a DSC-821 Mettler-Toledo instrument, serial number 5117423874. Samples were weighed into an aluminium pan, an aluminium lid placed on top of the sample and compressed with a brass rod. Samples were equilibrated at 30° C. and heated at 10° C./min to 350° C. The instrument was calibrated using indium and zinc standards.

Row | SMILES | Water Solubility @ 25° C. (mg/mL as acid) [1] | Hygroscopicity according to the DVS pattern [2] | Hysteresis in the DVS pattern [2] | Stability (no conversion into other polymorphs, no decomposition) from DSC thermogram [3] | Mass increase at 80% relative humidity [2] | Mass increase at 90% relative humidity [2]
1 | COc1cccc(-c2cc(F)c(Nc3ncccc3C(=O)O)c(F)c2)c1 [C1, 2-[(3,5-difluoro-3′-methoxy-1,1′-biphenyl-4-yl)amino]nicotinic acid, reference compound] | 0.004 mg/mL | – | – | – | – | –
2 | CCOc1cccc(-c2ccc(Nc3ncccc3C(=O)O)c(OC(F)(F)F)c2)c1 [C2, 2-{[3′-ethoxy-3-(trifluoromethoxy)-1,1′-biphenyl-4-yl]amino}nicotinic acid, reference compound] | 0.008 mg/mL | – | – | – | – | –
3 | Cc1c(-c2ccccc2)cc(F)c(Nc2ncccc2C(=O)O)c1F [C3, 2-[(3,5-difluoro-2-methyl-1,1′-biphenyl-4-yl)amino]nicotinic acid, reference compound] | 0.002 mg/mL | – | – | – | – | –
4 | COc1cccc(-c2cc(F)c(Nc3ncccc3C(=O)O)c(F)c2)c1 [Ex. 1, 2-[(3,5-difluoro-3′-methoxy-1,1′-biphenyl-4-yl)amino]nicotinic acid, meglumine salt] | 2.810 mg/mL | not hygroscopic | no hysteresis | high stability | – | –
5 | COc1cccc(-c2cc(F)c(Nc3ncccc3C(=O)O)c(F)c2)c1 [Ex. 2, 2-[(3,5-difluoro-3′-methoxy-1,1′-biphenyl-4-yl)amino]nicotinic acid, tromethamine salt] | 0.870 mg/mL | not hygroscopic | no hysteresis | high stability | – | –
6 | CCOc1cccc(-c2ccc(Nc3ncccc3C(=O)O)c(OC(F)(F)F)c2)c1 [Ex. 3, 2-(3′-ethoxy-3-(trifluoromethoxy)biphenyl-4-ylamino)nicotinic acid, meglumine salt] | 0.478 mg/mL | slightly hygroscopic | no hysteresis | high stability | 2.7% | 6.2%
7 | Cc1c(-c2ccccc2)cc(F)c(Nc2ncccc2C(=O)O)c1F [Ex. 4, 2-(3,5-difluoro-2-methylbiphenyl-4-ylamino)nicotinic acid, meglumine salt] | 0.210 mg/mL | not hygroscopic | – | – | – | –
8 | Cc1c(-c2ccccc2)cc(F)c(Nc2ncccc2C(=O)O)c1F [Ex. 5, 2-(3,5-difluoro-2-methylbiphenyl-4-ylamino)nicotinic acid, tromethamine salt] | 0.490 mg/mL | a bit hygroscopic | without hysteresis | – | 5.7% | 14.9%
9 | COc1cccc(-c2cc(F)c(Nc3ncccc3C(=O)O)c(F)c2)c1 [Ex. 6, 2-[(3,5-difluoro-3′-methoxy-1,1′-biphenyl-4-yl)amino]nicotinic acid, L-arginine salt] | – | – | – | high stability | – | –
